We go through 4 molecules from PMC5943947 (Molecules : A Journal of Synthetic Chemistry and Natural …, 2017).

The subject of one data set is MCF-7 cell line. The experiment in a line: In vitro antiproliferative activity, MTT assay, MCF-7. The class given is cell-based. As to conditions: Homo sapiens, MCF7, 48 h. As for the experimental part: (§1) HCT116, MCF-7 and B16 cell lines were plated on 96-well plates at a density of 5000 per well and incubated overnight. […] After 48 h, 0.5% MTT (Amresco, Solon, OH, USA) solution was added to each well, and further incubation for 4 h, then cells were centrifuged at 2500 rpm for 15 min and removed from the culture medium. And add 150 μL DMSO to dissolve the formazan. After mixing for 5 min, optical density was detected at 570 nm on a microplate reader (Thermo, Waltham, MA, USA).
For orientation: Formazan colour is commonly taken as a measure of viable cells.

The target in another data set is EGFR (Homo sapiens, UniProt P00533). The experiment in a line: EGFR inhibitory assay (caliper mobility shift assay).
A further data set deals with HCT116 cell line. Put plainly: In vitro antiproliferative activity, MTT assay, HCT116. The settings on record: Homo sapiens, HCT-116, 48 h. It is filed as cell-based. As for the experimental part:
as §1

The target in the next data set is VEGFR-2 (Homo sapiens, UniProt P35968). Put plainly: VEGFR-2 inhibitory assay (caliper mobility shift assay).
A further data set concerns B16 cell line. Put plainly: In vitro antiproliferative activity, MTT assay, B16. It is filed as cell-based. The settings on record: Mus musculus, 48 h. How it is done: as §1
A short description of data set [1]: Body weight in B16 melanoma xenograft model. It is filed as in vivo. The settings on record: B16 tumor-bearing C57BL/6J mice; for Body Weight End: 90 mg/kg for 14 days, end of treatment; for Body Weight Initial: 90 mg/kg, before treatment. As for the experimental part:
(§2) Male C57BL/6J mice were employed to establish the xenograft tumor model by subcutaneous injection (S.C.) of 6 × 10^6 B16 cells. […] In the end of treatment, the mice were sacrificed and the tumor were peeled off and weighted. The inhibition rate of tumor growth was calculated. All animal protocols were conformed to the Guidelines for the Care and Use of Laboratory Animals approved by the Animal Care and Use Committee of Yantai University.

In the next data set the test system is B16 melanoma xenograft. The experiment in a line: In vivo antitumor activity, B16 melanoma xenograft model. As to conditions: 90 mg/kg for 14 days (text: orally; table footnote: i.p.), C57BL/6J mice. How it is done: as §2

Sequence of EGFR (P00533 25-1210): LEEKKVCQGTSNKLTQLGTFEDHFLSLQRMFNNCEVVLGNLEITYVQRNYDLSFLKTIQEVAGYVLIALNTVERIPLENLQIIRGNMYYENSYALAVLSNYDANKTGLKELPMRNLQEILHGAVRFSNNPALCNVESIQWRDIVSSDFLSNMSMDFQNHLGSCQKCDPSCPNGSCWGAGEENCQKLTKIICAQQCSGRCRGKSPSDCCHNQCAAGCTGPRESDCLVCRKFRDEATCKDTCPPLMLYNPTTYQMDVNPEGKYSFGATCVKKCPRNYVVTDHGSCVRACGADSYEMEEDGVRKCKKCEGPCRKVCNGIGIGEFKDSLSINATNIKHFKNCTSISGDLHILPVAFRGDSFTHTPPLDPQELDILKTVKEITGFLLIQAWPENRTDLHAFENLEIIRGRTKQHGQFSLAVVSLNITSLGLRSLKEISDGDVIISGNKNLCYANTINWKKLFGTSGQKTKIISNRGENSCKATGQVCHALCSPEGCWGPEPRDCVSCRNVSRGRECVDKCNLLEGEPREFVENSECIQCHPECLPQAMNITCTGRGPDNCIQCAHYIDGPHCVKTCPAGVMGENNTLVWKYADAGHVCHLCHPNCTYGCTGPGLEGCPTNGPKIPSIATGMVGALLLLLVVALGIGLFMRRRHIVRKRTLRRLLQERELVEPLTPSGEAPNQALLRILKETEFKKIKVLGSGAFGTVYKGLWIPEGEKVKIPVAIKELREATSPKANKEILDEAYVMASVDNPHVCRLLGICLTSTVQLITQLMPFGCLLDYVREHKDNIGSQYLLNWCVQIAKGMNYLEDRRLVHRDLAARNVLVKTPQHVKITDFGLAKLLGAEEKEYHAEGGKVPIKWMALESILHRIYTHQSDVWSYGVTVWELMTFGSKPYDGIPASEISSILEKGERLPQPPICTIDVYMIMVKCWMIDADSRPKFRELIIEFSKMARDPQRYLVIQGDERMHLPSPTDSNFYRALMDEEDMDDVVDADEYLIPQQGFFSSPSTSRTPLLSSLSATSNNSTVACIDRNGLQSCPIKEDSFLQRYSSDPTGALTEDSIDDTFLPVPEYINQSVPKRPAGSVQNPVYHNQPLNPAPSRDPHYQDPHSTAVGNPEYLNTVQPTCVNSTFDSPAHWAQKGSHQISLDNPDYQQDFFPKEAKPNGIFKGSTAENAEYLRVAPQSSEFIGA
Sequence of VEGFR-2 (P35968 20-1356): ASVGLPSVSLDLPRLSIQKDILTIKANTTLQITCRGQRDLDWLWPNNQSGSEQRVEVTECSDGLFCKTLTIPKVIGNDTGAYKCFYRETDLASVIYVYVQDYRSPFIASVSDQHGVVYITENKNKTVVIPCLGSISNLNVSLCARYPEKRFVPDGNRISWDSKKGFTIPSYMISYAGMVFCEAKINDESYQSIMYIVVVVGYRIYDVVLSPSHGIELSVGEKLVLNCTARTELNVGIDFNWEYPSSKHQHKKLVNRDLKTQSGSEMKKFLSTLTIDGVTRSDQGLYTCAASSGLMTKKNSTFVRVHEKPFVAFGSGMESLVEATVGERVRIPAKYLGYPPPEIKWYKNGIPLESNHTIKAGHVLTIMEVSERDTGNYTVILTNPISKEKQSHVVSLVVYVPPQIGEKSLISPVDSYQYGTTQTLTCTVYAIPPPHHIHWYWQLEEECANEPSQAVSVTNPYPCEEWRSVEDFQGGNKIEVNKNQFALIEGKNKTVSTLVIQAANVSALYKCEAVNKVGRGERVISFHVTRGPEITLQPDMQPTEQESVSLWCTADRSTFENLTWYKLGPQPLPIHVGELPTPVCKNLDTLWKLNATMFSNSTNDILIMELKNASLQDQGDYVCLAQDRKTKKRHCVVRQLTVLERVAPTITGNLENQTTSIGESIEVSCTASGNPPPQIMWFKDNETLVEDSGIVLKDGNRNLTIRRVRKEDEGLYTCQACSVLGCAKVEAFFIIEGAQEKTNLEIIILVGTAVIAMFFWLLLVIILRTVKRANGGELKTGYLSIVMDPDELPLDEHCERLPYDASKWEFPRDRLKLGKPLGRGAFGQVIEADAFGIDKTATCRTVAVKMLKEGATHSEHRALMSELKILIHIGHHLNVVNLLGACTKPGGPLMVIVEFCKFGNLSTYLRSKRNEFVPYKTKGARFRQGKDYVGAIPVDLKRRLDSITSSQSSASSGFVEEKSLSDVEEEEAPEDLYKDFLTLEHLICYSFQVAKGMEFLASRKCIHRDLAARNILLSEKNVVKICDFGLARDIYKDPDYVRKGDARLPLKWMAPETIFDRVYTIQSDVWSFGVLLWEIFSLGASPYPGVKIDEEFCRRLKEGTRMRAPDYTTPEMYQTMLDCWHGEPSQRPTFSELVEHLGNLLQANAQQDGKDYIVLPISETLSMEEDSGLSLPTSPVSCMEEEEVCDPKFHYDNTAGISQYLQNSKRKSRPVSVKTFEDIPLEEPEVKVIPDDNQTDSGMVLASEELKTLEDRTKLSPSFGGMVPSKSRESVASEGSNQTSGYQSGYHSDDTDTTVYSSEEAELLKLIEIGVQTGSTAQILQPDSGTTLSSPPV
Protocol for VEGFR-2: Each of these compounds was dissolved in DMSO at 10 mM, diluted to 50× of the final desired highest inhibitor concentration in reaction by 100% DMSO, and 100 μL of each dilution was added to one well on 96-well storage plate, and diluted by transferring 10 μL to 90 μL of 100% DMSO in the next well. Besides, 100 μL of 100% DMSO was added to two empty wells for no compound control and no enzyme control in the same 96-well plate respectively. The plate was marked as source plate. 10 μL of each compound was transferred from the source plate to a new 96-well plate, which was marked as the intermediate plate. Next, 90 μL of 1× kinase base buffer was added to each well of the intermediate plate, and mixed by shaking vigorously for 10 min. A total of 5 μL of each well from the 96-well intermediate plate was transferred to a 384-well plate in duplicate.
Kinase reaction: kinase in 1× kinase base buffer, FAM-labeled peptide and ATP in the 1× kinase base buffer were added, then 10 μL of 2.5× enzyme solution was added to each well of the 384-well assay plate. After incubating at room temperature for 10 min, 10 μL of 2.5× peptide solution was added to each well of the 384-well assay plate. […] Finally, the kinase reactions were quenched with 25 μL of EDTA and the plates were washed. The dates were collected and converted with the caliper program.

Usually IC50 stands for the midpoint of a concentration-inhibition curve. Consider `COc1cc2ncnc(Oc3cccc(NC(=S)Nc4ccc(Cl)c(C(F)(F)F)c4)c3)c2cc1OC` [Compound 10b, 1-(4-Chloro-3-trifluoromethylphenyl)-3-[3-(6,7-dimethoxyquinazolin-4-yloxy)phenyl]thiourea], for which the IC50 was 17.7 µM with MCF-7 cell line; 0.02 µM at EGFR; 9.13 µM in the data set on HCT116 cell line; 0.05 µM on VEGFR-2; 6.11 µM in the data set with B16 cell line. The “Body Weight End” value in data set [1] was found to be 19.5 ± 3.0 g. Also, the “Body Weight Initial” value in data set [1] is 18.9 ± 1.8 g. Besides, the “Inhibition Rate of tumor growth” value in the data set with B16 melanoma xenograft was 49.22%. The “Tumor Weight” value in the data set with B16 melanoma xenograft turned out to be 0.65 ± 0.22 g.

For orientation: melting point means the temperature, or range, at which the solid turns liquid. For the molecule `COc1cc2ncnc(Sc3cccc(NC(=S)Nc4ccc(Cl)c(C(F)(F)F)c4)c3)c2cc1OC` [Compound 10m, 1-(4-Chloro-3-trifluoromethylphenyl)-3-[3-(6,7-dimethoxyquinazolin-4-ylsulfanyl)phenyl] thiourea], the melting point was 162.2 to 164 °C. Further, in the data set on MCF-7 cell line, the IC50 was 20.9 µM. For the same molecule, the IC50 on EGFR is 0.01 µM. Also, the IC50 in the data set on HCT116 cell line worked out at 8.11 µM. For the same molecule, the 50% inhibitory concentration (IC50) at VEGFR-2 amounted to 0.07 µM. For the same molecule, the midpoint of inhibition with B16 cell line, the IC50, lay at 7.89 µM. Also, in data set [1], the “Body Weight End” value is reported as 20.9 ± 1.6 g and the “Body Weight Initial” value came to 19.2 ± 2.1 g. Also, in the data set on B16 melanoma xenograft, the “Inhibition Rate of tumor growth” value is on record as 20.31% and the “Tumor Weight” value came out at 1.02 ± 0.36 g.

For `COc1cc2ncnc(Sc3cccc(NC(=S)Nc4ccc(Br)c(C(F)(F)F)c4)c3)c2cc1OC` [Compound 10q, 1-(4-Bromo-3-trifluoromethylphenyl)-3-[3-(6,7-dimethoxyquinazolin-4-ylsulfanyl)phenyl] thiourea], the melting point was in the range of 150.3 to 152 °C. Besides, 15.7 µM corresponded to half-maximal inhibition in the data set with MCF-7 cell line (IC50). Moreover, at EGFR, the 50% inhibitory concentration (IC50) came out at 0.01 µM. In the data set with HCT116 cell line, this molecule gave an IC50 of 8.35 µM. Also, the half-inhibitory concentration (IC50) at VEGFR-2 amounted to 0.08 µM. Further, in the data set with B16 cell line, the midpoint of inhibition, the IC50, lay at 5.57 µM. Further, in data set [1], the “Body Weight End” value amounted to 20.2 ± 2.7 g and the “Body Weight Initial” value came out at 19.1 ± 2.7 g. Further, in the data set on B16 melanoma xenograft, the “Inhibition Rate of tumor growth” value came to 64.06% and the “Tumor Weight” value is listed as 0.46 ± 0.14 g.

With `CNC(=O)c1cc(Oc2ccc(NC(=O)Nc3ccc(Cl)c(C(F)(F)F)c3)cc2)ccn1` [sorafenib, reference compound], the IC50 was determined as 17.9 µM with MCF-7 cell line, 10.6 µM with HCT116 cell line and 9.29 µM in the data set on B16 cell line. In addition, in data set [1], the “Body Weight End” value came to 21.3 ± 2.4 g. The “Body Weight Initial” value in data set [1] turned out to be 20.7 ± 2.1 g. Also, the “Inhibition Rate of tumor growth” value in the data set with B16 melanoma xenograft and in the data set with B16 melanoma xenograft (listed as Sorafenib) was 31.25% throughout. Further, the “Tumor Weight” value in the data set on B16 melanoma xenograft is 0.88 ± 0.46 g.
